Data as given in patent publication US20250092056A1, “URACIL DERIVATIVES HAVING VIRUS REPLICATION INHIBITORY ACTIVITY AND PHARMACEUTICAL COMPOSITION COMPRISING THE SAME” (Shionogi & Co., Ltd., priority 2022, published 2025).

Assays:
[1] = tested on: SARS-CoV-2; experiment: Cytopathic effect (CPE) suppression effect confirmation test using HEK293T/ACE2-TMPRSS2 cells; format: cell-based; details: Severe acute respiratory syndrome coronavirus 2, HEK-293T; 50% SARS-CoV-2 infected cell death inhibitory concentration; HEK293T/ACE2-TMPRSS2 cells; read-out: EC50
[2] = molecular target: Recombinant SARS-CoV-2 3CL Protease (Severe acute respiratory syndrome coronavirus 2 (2019-nCoV) (SARS-CoV-2), UniProt P0DTD1); experiment: biochemical; format: biochemical; details: 50% SARS-CoV-2 3CL protease inhibitory concentration; read-out: IC50

SMILES | EC50 [1] | IC50 [2]
N#CCn1c(N2CC(F)(C3CC3)C2)c(-c2ccc(F)c(Cl)c2)c(=O)n(-c2cncc(C#N)c2)c1=O [Compound I-338] | < 100 nM | < 10 nM
N#CCn1c(N2CC3(C2)CC(F)(F)C3)c(-c2ccc(F)c(C(F)F)c2)c(=O)n(-c2cncc(Cl)c2)c1=O [Compound I-339] | < 100 nM | < 10 nM
N#CCn1c(N2CC(O)(C(F)(F)F)C2)c(-c2ccc(F)c(C(F)F)c2)c(=O)n(-c2cncc(Cl)c2)c1=O [Compound I-340] | < 100 nM | < 10 nM
N#CCn1c(N2CC(C(F)(F)F)C2)c(-c2ccc(F)c(C(F)F)c2)c(=O)n(-c2cncc(Cl)c2)c1=O [Compound I-341] | < 100 nM | < 10 nM
N#CCn1c(N2CC(OC(F)F)C2)c(-c2ccc(F)c(C(F)F)c2)c(=O)n(-c2cncc(Cl)c2)c1=O [Compound I-342] | < 100 nM | < 10 nM
N#CCn1c(N2C[C@@H]3C[C@H]2CO3)c(-c2ccc(F)c(C(F)F)c2)c(=O)n(-c2cncc(Cl)c2)c1=O [Compound I-343] | < 100 nM | < 10 nM
Cc1cc(-n2c(=O)c(-c3ccc(F)c(Cl)c3)c(N3CC4(C3)CC(F)(F)C4)n(CC#N)c2=O)cc(=O)o1 [Compound I-344] | < 100 nM | 10 to 100 nM
N#CCn1c(N2CC(O)(C(F)F)C2)c(-c2ccc(F)c(Cl)c2)c(=O)n(-c2cncc(C(F)F)n2)c1=O [Compound I-345] | < 100 nM | < 10 nM
N#CCn1c(N2CC(O)(c3ncccn3)C2)c(-c2ccc(F)c(Cl)c2)c(=O)n(-c2cncc(OCF)c2)c1=O [Compound I-346] | < 100 nM | < 10 nM
N#CCn1c(N2CC(F)(C3CC3)C2)c(-c2ccc(F)c(Cl)c2)c(=O)n(-c2cncc(OCF)c2)c1=O [Compound I-347] | < 100 nM | < 10 nM
N#CCn1c(C2(O)CCC2)c(-c2ccc(F)c(Cl)c2)c(=O)n(-c2cncc(Cl)c2)c1=O [Compound I-348] | < 100 nM | 10 to 100 nM
N#CCn1c(C2=CCC2)c(-c2ccc(F)c(Cl)c2)c(=O)n(-c2cncc(Cl)c2)c1=O [Compound I-349] | < 100 nM | 10 to 100 nM
N#CCn1c(CCC(F)F)c(-c2ccc(F)c(Cl)c2)c(=O)n(-c2cncc(Cl)c2)c1=O [Compound I-350] | < 100 nM | < 10 nM
N#CCn1c(N2CC(OC(F)(F)F)C2)c(-c2ccc(F)c(Cl)c2)c(=O)n(-c2cnc3cc(F)ccn23)c1=O [Compound I-351] | < 100 nM | < 10 nM
N#CCn1c(N2CC(C(F)(F)F)C2)c(-c2ccc(F)c(Cl)c2)c(=O)n(-c2cncc(OCF)c2)c1=O [Compound I-352] | < 100 nM | < 10 nM
N#CCn1c(N2CC3(C2)CC(F)(F)C3)c(-c2ccc(F)c(Cl)c2)c(=O)n(-c2cncc(OCF)n2)c1=O [Compound I-353] | < 100 nM | < 10 nM
CC1(O)CN(c2c(-c3ccc(F)c(Cl)c3)c(=O)n(-c3cncc(OC(F)F)n3)c(=O)n2CC#N)C1 [Compound I-354] | < 100 nM | < 10 nM
CC1(O)CN(c2c(-c3ccc(F)c(Cl)c3)c(=O)n(-c3cncc(OCF)n3)c(=O)n2CC#N)C1 [Compound I-355] | < 100 nM | < 10 nM
CC(C)(F)CCc1c(-c2ccc(F)c(Cl)c2)c(=O)n(-c2cncc(Cl)c2)c(=O)n1CC#N [Compound I-357] | < 100 nM | < 10 nM
N#CCn1c(N2CC(OC(F)F)C2)c(-c2ccc(F)c(Cl)c2)c(=O)n(-c2cncc(C(F)F)n2)c1=O [Compound I-358] | < 100 nM | < 10 nM
N#CCn1c(-c2nnc(C3CC3)s2)c(-c2ccc(F)c(Cl)c2)c(=O)n(-c2cncc(Cl)c2)c1=O [Compound I-359] | < 100 nM | < 10 nM
Cc1coc(-c2c(-c3ccc(F)c(Cl)c3)c(=O)n(-c3cncc(Cl)c3)c(=O)n2CC#N)n1 [Compound I-360] | < 100 nM | < 10 nM
N#CCn1c(N2CC3(C2)CC(F)(F)C3)c(-c2ccc(F)c(Cl)c2)c(=O)n(-c2cncc(Br)c2)c1=O [Compound I-361] | < 100 nM | < 10 nM
N#CCn1c(N2CC3(C=C(F)C3)C2)c(-c2ccc(F)c(Cl)c2)c(=O)n(-c2cncc(Cl)c2)c1=O [Compound I-362] | < 100 nM | < 10 nM

SMILES | EC50 [1] | IC50 [2]
N#CCn1c(N2CC3(C2)CC(F)(F)C3)c(-c2ccc(F)c(Cl)c2)c(=O)n(-c2cncc(I)c2)c1=O [Compound I-363] | < 100 nM | < 10 nM
N#CCn1c(N2CC3(CCOC3)C2)c(CC2CC(F)(F)C2)c(=O)n(-c2cncc(Cl)c2)c1=O [Compound I-364] | 100 to 1000 nM | > 100 nM
N#CCn1c(N2CC3(CCOC3)C2)c(CCCC(F)(F)F)c(=O)n(-c2cncc(Cl)c2)c1=O [Compound I-365] | 100 to 1000 nM | 10 to 100 nM
N#CCn1c(N2CC3(C2)CC(F)(F)C3)c(-c2cc(F)c(F)c(C#N)c2)c(=O)n(-c2cncc(Cl)c2)c1=O [Compound I-366] | < 100 nM | < 10 nM
N#CCn1c(N2CC(O)(C(F)(F)F)C2)c(-c2cc(F)c(F)c(C#N)c2)c(=O)n(-c2cncc(Cl)c2)c1=O [Compound I-367] | < 100 nM | < 10 nM
N#CCn1c(N2CC(C(F)(F)F)C2)c(-c2cc(F)c(F)c(C#N)c2)c(=O)n(-c2cncc(Cl)c2)c1=O [Compound I-368] | < 100 nM | < 10 nM
N#CCn1c(N2CC(OC(F)F)C2)c(-c2cc(F)c(F)c(C#N)c2)c(=O)n(-c2cncc(Cl)c2)c1=O [Compound I-369] | < 100 nM | < 10 nM
N#CCn1c(N2C[C@@H]3C[C@H]2CO3)c(-c2cc(F)c(F)c(C#N)c2)c(=O)n(-c2cncc(Cl)c2)c1=O [Compound I-370] | < 100 nM | < 10 nM
N#CCn1c(C2CC(O)C2)c(-c2ccc(F)c(Cl)c2)c(=O)n(-c2cncc(Cl)c2)c1=O (stereo not drawn) [Compound I-371] | < 100 nM | < 10 nM
N#CCn1c(N2CC3(C2)CC(F)(F)C3)c(-c2ccc(F)c(C#N)c2)c(=O)n(-c2cncc(Cl)c2)c1=O [Compound I-372] | < 100 nM | < 10 nM
N#CCn1c(N2CC(O)(C(F)(F)F)C2)c(-c2ccc(F)c(C#N)c2)c(=O)n(-c2cncc(Cl)c2)c1=O [Compound I-373] | < 100 nM | < 10 nM
N#CCn1c(N2CC(C(F)(F)F)C2)c(-c2ccc(F)c(C#N)c2)c(=O)n(-c2cncc(Cl)c2)c1=O [Compound I-374] | < 100 nM | < 10 nM
N#CCn1c(N2CC(OC(F)F)C2)c(-c2ccc(F)c(C#N)c2)c(=O)n(-c2cncc(Cl)c2)c1=O [Compound I-375] | < 100 nM | < 10 nM
N#CCn1c(N2C[C@@H]3C[C@H]2CO3)c(-c2ccc(F)c(C#N)c2)c(=O)n(-c2cncc(Cl)c2)c1=O [Compound I-376] | < 100 nM | < 10 nM
N#CCn1c(N2CC(O)(c3ncccn3)C2)c(-c2ccc(F)c(Cl)c2)c(=O)n(-c2cncc(OCF)n2)c1=O [Compound I-377] | < 100 nM | < 10 nM
N#CCn1c(N2CC(O)(c3ncccn3)C2)c(-c2ccc(F)c(Cl)c2)c(=O)n(-c2cncc(OC(F)F)n2)c1=O [Compound I-378] | < 100 nM | < 10 nM
COc1ccc(-c2c(-c3ccc(F)c(Cl)c3)c(=O)n(-c3cncc(Cl)c3)c(=O)n2CC#N)cn1 [Compound I-379] | < 100 nM | < 10 nM
N#CCn1c(-c2ccc(CO)nc2)c(-c2ccc(F)c(Cl)c2)c(=O)n(-c2cncc(Cl)c2)c1=O [Compound I-380] | < 100 nM | < 10 nM
N#CCn1c(N2CC(O)(C3CC3)C2)c(-c2ccc(F)c(Cl)c2)c(=O)n(-c2cncc(C(F)F)n2)c1=O [Compound I-381] | < 100 nM | < 10 nM
CC1(O)CN(c2c(-c3ccc(F)c(Cl)c3)c(=O)n(-c3cncc(C(F)F)n3)c(=O)n2CC#N)C1 [Compound I-382] | < 100 nM | < 10 nM
N#CCn1c(N2CC(O)(C(F)(F)F)C2)c(-c2ccc(F)c(Cl)c2)c(=O)n(-c2cncc(C(F)F)n2)c1=O [Compound I-383] | < 100 nM | < 10 nM
N#CCn1c(-c2ccc(C#N)nc2)c(-c2ccc(F)c(Cl)c2)c(=O)n(-c2cncc(Cl)c2)c1=O [Compound I-384] | < 100 nM | < 10 nM
N#CCn1c(-c2ccc(F)nc2)c(-c2ccc(F)c(Cl)c2)c(=O)n(-c2cncc(Cl)c2)c1=O [Compound I-385] | < 100 nM | < 10 nM
N#CCn1c(-c2ccc(C(F)F)nc2)c(-c2ccc(F)c(Cl)c2)c(=O)n(-c2cncc(Cl)c2)c1=O [Compound I-387] | < 100 nM | < 10 nM
